Measurements as given in patent publication US5716982A, “Retinoids and methods of use of same” (priority 1995, dated 1998).
Like-named read-outs stand apart in the source and are kept apart here.

What was measured:
[1] = tested on: Human promyelocytic leukemia HL-60 cells; assay: Cell differentiation of HL-60 cells, nitroblue tetrazolium (NBT) reduction; type: cell-based; settings: for EC50: Homo sapiens; for NBT (+) %: HL-60
Method: Human promyelocytic leukemia HL-60 cells were cultured in RPMI-1640 medium supplemented by 10% heat-inactivated calf serum and 100 U/ml of penicillin plus 100 μg/ml of streptomycin. The flasks containing cells and medium were incubated in an incubator with 5% CO2 at 37° C. Log phase cells were seeded into the medium at a concentration of 1.2×10^5to 1.4×10^5 cells per ml and cultured in flasks containing 5 ml of medium. Each group consisted of three flasks. Different concentrations of coumarin-retinoids were added. At intervals following the addition of coumarin-retinoids to the cultures, a small portion of cells was removed and live cells were counted under a light microscope using a dye-exclusionmethod with trypan blue. Cell differentiation was judged in terms of morphology and nitroblue tetrazolium (NBT) reduction.
For a determination of NBT reducing activity, a portion of the coumarin-retinoid-treated cells was removed at intervals following treatment and centrifuged. After centrifugation, 0.5 ml of 0.1% NBT (containing 100 ng TPA) was added to each tube. The contents of the test tubes were then incubated for 1 hour at 37° C. Cell smears were prepared from the cell sediment and stained using the Wright-Giemsa technique. For each smear prepared, 200 cells were isolated for examination under a light microscope with an oil immersion lens. Cells stained with blue-black granules were considered NBT-positive cells. The 50% differentiation or effective concentration (ED50 or EC50) is shown in terms of molar (M) concentration of the […] tested.
(§1) The protocols of Examples 14 and 21 were used, for the NBT and MTT assays, respectively.

HL-60 cells = assay: MTT assay in HL-60 cells; type: cell-based, human; settings: for inhibition at 10 µM: 10^-5 M; for inhibition at 10 µM / inhibition at 1 µM / inhibition at 0.1 µM / inhibition at 0.01 µM: HL-60; for inhibition at 1 µM: 10^-6 M; for inhibition at 0.1 µM: 10^-7 M; for inhibition at 0.01 µM: 10^-8 M
Method: Human cancer cell lines (KB, A2780, MCF-7, HL-60, A549) were used. For a monolayer culture, 0.5 ml of trypsin solution ([…]) was added to the flasks for digestion. Microtiter plates (96 well) were used for the cell culture and 200 μl of cell suspension (1200 tumor cells) were placed in each well and incubated at 37° C. for 24 hours. Following the addition of the test compound, the control and treated flasks were placed in a CO2 incubator for 5 day culture. For the MTT assay, 200 μl of MTT solution (5 mg in 10 ml of phosphate buffer) plus the medium were added and incubated for another 4 hours. Following incubation, the supernatant was discarded and 200 μl of DMSO was added to each well. With a mild agitation the OD values were determined by the MR 700 Elisa at 570 nm (reference wavelength was 450 nm). The ED50 of the compound and tumor cell survival rate [formula] as percent inhibition were calculated.
as §1

[2] = tested on: bone abnormalities in mouse fetus; assay: Bone abnormalities in mouse fetus (anti-teratogenicity); type: in vivo
Method: Female mice were examined by vaginal smear the morning after being caged with male mice, and if sperm or a vaginal plug was discovered, then the mice were determined to be pregnant. The retinoids were administered at the dosage indicated starting on the seventh day of pregnancy and continued once a day for the next ten days. On the 20th day after the female mice were determined to be pregnant, they were sacrificed by cervical dislocation. Both sides of the uterus were checked and the number of living embryos, dead embryos, and absorbed embryos were counted. The living embryos were further examined for bone abnormalities.
After the embryos became transparent, they were dissected and their skeletons were checked by observation under a microscope.

[3] = NBT reduction, 50% differentiation, HL-60 (Table 2), read-out: EC50
[4] = Homo sapiens, 120 h, MTT, HL-60 (Table 12), read-out: ED50 (the source's name)
[5] = HL-60 (Table 15), read-out: NBT ED50
[6] = Homo sapiens, 120 h, HL-60 (Table 15), read-out: MTT ED50

## CC1=C(/C=C/C(C)=C/C=C/C(C)=C/C(=O)Oc2cc(C(=O)O)c3cc(C(N)=O)c(=O)oc3c2)C(C)(C)CCC1 [Compound I-26]
[1]; [3]
  EC50: 80 nM
HL-60 cells; [4]
  IC50: 900 nM
HL-60 cells; Homo sapiens, MTT
  inhibition at 10 µM: 68.7 ± 0.2%
  inhibition at 1 µM: 52.6 ± 0.5%
  inhibition at 0.1 µM: 43.8 ± 1.3%
  inhibition at 0.01 µM: 9.4 ± 3.7%

## CC1=C(/C=C/C(C)=C/C=C/C(C)=C/C(=O)Oc2ccc3c(C)cc(=O)oc3c2OC(=O)/C=C(C)/C=C/C=C(C)/C=C/C2=C(C)CCCC2(C)C)C(C)(C)CCC1 [Compound I-36, 4-methyl-7,8-diretinoyloxy-coumarin]
[1]; [5]
  EC50: > 10000 nM
HL-60 cells; [6]
  IC50: 3200 nM

## CC(=O)c1cc2ccc(OC(=O)/C=C(C)/C=C/C=C(C)/C=C/C3=C(C)CCCC3(C)C)c(C)c2oc1=O [Compound I-3]
[1]; [3]
  EC50: 800 nM

## CC1=C(/C=C/C(C)=C/C=C/C(C)=C/C(=O)Oc2cc(=O)oc3ccc(C(C)(C)C)cc23)C(C)(C)CCC1 [Compound I-28, 4-retinoyloxy-6-t-butyl-coumarin]
HL-60 cells; [6]
  IC50: > 10000 nM

## CC1=C(/C=C/C(C)=C/C=C/C(C)=C/C(=O)Oc2ccc3c(C)cc(=O)oc3c2)C(C)(C)CCC1 [Compound I-32, 4-methyl-7-retinoyloxy-coumarin]
HL-60 cells; HL-60 (Table 15), 7200 min, read-out: MTT ED50
  IC50: 11000 nM

## CCCCCCc1cc2cc(C(C)=O)c(=O)oc2c(C)c1OC(=O)/C=C(C)/C=C/C=C(C)/C=C/C1=C(C)CCCC1(C)C [Compound I-14]
HL-60 cells; [4]
  IC50: 9000 nM
HL-60 cells; Homo sapiens, MTT
  inhibition at 10 µM: 52.6 ± 1.3%
  inhibition at 1 µM: 30 ± 1.4%
  inhibition at 0.1 µM: 10.4 ± 2.4%

## CCCCCCc1cc2c(C)cc(=O)oc2cc1OC(=O)/C=C(C)/C=C/C=C(C)/C=C/C1=C(C)CCCC1(C)C [Compound I-34, 4-methyl-6-hexyl-7-retinoyloxy-coumar in]
HL-60 cells; [6]
  IC50: > 10000 nM

## CCCCCCCCCCCCOC(=O)c1cc(OC(=O)/C=C(C)/C=C/C=C(C)/C=C/C2=C(C)CCCC2(C)C)c(OC(=O)/C=C(C)/C=C/C=C(C)/C=C/C2=C(C)CCCC2(C)C)c2oc(=O)c(C(=O)OCC)cc12 [Compound I-12]
[1]; [3]
  EC50: 10 nM

## CC(=O)c1cc2c(OC(=O)/C=C(C)/C=C/C=C(C)/C=C/C3=C(C)CCCC3(C)C)c(C(=O)O)ccc2oc1=O [Compound I-8]
[1]; [3]
  EC50: 59 nM
HL-60 cells; [4]
  IC50: 100 nM
HL-60 cells; Homo sapiens, MTT
  inhibition at 10 µM: 63.9 ± 2.9%
  inhibition at 1 µM: 54 ± 1.9%
  inhibition at 0.1 µM: 50.5 ± 0.9%
  inhibition at 0.01 µM: 29.7 ± 1.4%

## CCOC(=O)c1cc2cc(Cl)c(OC(=O)/C=C(C)/C=C/C=C(C)/C=C/C3=C(C)CCCC3(C)C)cc2oc1=O [Compound I-18]
[1]; [3]
  EC50: 10000 nM

## CCOC(=O)c1cc2ccc(OC(=O)/C=C(C)/C=C/C=C(C)/C=C/C3=C(C)CCCC3(C)C)c(C)c2oc1=O [Compound I-15]
[1]; [3]
  EC50: 260 nM
HL-60 cells; [4]
  IC50: 900 nM
HL-60 cells; Homo sapiens, MTT
  inhibition at 10 µM: 54.5 ± 2.8%
  inhibition at 1 µM: 48.8 ± 1.3%
  inhibition at 0.1 µM: 34.6%
  inhibition at 0.01 µM: 16.2 ± 2.4%

## CCc1cc2cc(C(C)=O)c(=O)oc2cc1OC(=O)/C=C(C)/C=C/C=C(C)/C=C/C1=C(C)CCCC1(C)C [Compound I-13]
HL-60 cells; [4]
  IC50: > 10000 nM
HL-60 cells; Homo sapiens, MTT
  inhibition at 10 µM: 5.5 ± 3.9%
  inhibition at 1 µM: 4.3 ± 6.1%
  inhibition at 0.1 µM: 3.5 ± 3.9%

## CC1=C(/C=C/C(C)=C/C=C/C(C)=C/C(=O)Oc2cc3oc(=O)c(C(N)=O)cc3cc2Cl)C(C)(C)CCC1 [Compound I-27]
[1]; [3]
  EC50: 550 nM

## CC1=C(/C=C/C(C)=C/C=C/C(C)=C/C(=O)Oc2cc(=O)oc3ccc(C)cc23)C(C)(C)CCC1 [Compound I-35, 4-retinoyloxy-6-methyl-coumarin]
[1]; [5]
  EC50: 6700 nM
HL-60 cells; [6]
  IC50: 2600 nM

## CC1=C(/C=C/C(C)=C/C=C/C(C)=C/C(=O)Oc2ccc3c(C)cc(=O)oc3c2C)C(C)(C)CCC1 [Compound I-30]
HL-60 cells; [6]
  IC50: > 10000 nM

## CCOC(=O)c1cc2ccc(OC(=O)/C=C(C)/C=C/C=C(C)/C=C/C3=C(C)CCCC3(C)C)cc2oc1=O [Compound I-17]
[1]; [3]
  EC50: 1000 nM

## CCOC(=O)c1cc(OC(=O)/C=C(C)/C=C/C=C(C)/C=C/C2=C(C)CCCC2(C)C)cc2oc(=O)c(C(C)=O)cc12 [Compound I-11, 3-acetyl-5-ethoxycarbyl-7-retinoyloxy-coumarin]
[1]; [3]
  EC50: 3000 nM

## CC(=O)c1cc2c(COC(=O)/C=C(C)/C=C/C=C(C)/C=C/C3=C(C)CCCC3(C)C)cc(OC(=O)/C=C(C)/C=C/C=C(C)/C=C/C3=C(C)CCCC3(C)C)cc2oc1=O [Compound I-7]
[1]; [3]
  EC50: 750 nM

## CCc1cc2c(C)cc(=O)oc2cc1OC(=O)/C=C(C)/C=C/C=C(C)/C=C/C1=C(C)CCCC1(C)C [Compound I-31, 4-methyl-6-ethyl-7-retinoyloxy-coumarin]
HL-60 cells; [6]
  IC50: > 10000 nM

## CC(=O)c1cc2c(C)cc(OC(=O)/C=C(C)/C=C/C=C(C)/C=C/C3=C(C)CCCC3(C)C)cc2oc1=O [Compound I-2]
[1]; 10^-5 M
  NBT (+) %: 38%
[1]; [3]
  EC50: 2000 nM

## CCOC(=O)c1cc2c(C(=O)O)cc(OC(=O)/C=C(C)/C=C/C=C(C)/C=C/C3=C(C)CCCC3(C)C)cc2oc1=O [Compound I-19]
[1]; 10^-4 M
  NBT (+) %: 84%
[1]; 10^-5 M
  NBT (+) %: 5%
[1]; 10^-7 M
  NBT (+) %: 92%
[1]; [3]
  EC50: 9000 nM

## CC(=O)c1cc2ccc(OC(=O)/C=C(C)/C=C/C=C(C)/C=C/C3=C(C)CCCC3(C)C)c(OC(=O)/C=C(C)/C=C/C=C(C)/C=C/C3=C(C)CCCC3(C)C)c2oc1=O [Compound I-9]
[1]; [3]
  EC50: 65 nM
[2]; 20 mg/kg
  Delayed Calcification, Occipital delay/fetus: 0/75
  Delayed Calcification, Sternum delay/fetus: 0/75
[2]; 40 mg/kg
  Delayed Calcification, Occipital delay/fetus: 3/77
  Delayed Calcification, Sternum delay/fetus: 2/77
HL-60 cells; [4]
  IC50: 950 nM
HL-60 cells; Homo sapiens, MTT
  inhibition at 10 µM: 61.5 ± 1.9%
  inhibition at 1 µM: 50.6 ± 0.5%
  inhibition at 0.1 µM: 48.8 ± 0.5%
  inhibition at 0.01 µM: 28 ± 5.2%

## CCOC(=O)c1cc2c(OC(=O)/C=C(C)/C=C/C=C(C)/C=C/C3=C(C)CCCC3(C)C)cc(OC(=O)/C=C(C)/C=C/C=C(C)/C=C/C3=C(C)CCCC3(C)C)cc2oc1=O [Compound I-21]
[1]; [3]
  EC50: 250 nM
HL-60 cells; [4]
  IC50: 1000 nM
HL-60 cells; Homo sapiens, MTT
  inhibition at 10 µM: 61.2 ± 2.4%
  inhibition at 1 µM: 49.9 ± 2.5%
  inhibition at 0.1 µM: 32.5 ± 1.1%
  inhibition at 0.01 µM: 21.8 ± 3.1%

## CC(=O)c1cc2c(C(=O)O)cc(OC(=O)/C=C(C)/C=C/C=C(C)/C=C/C3=C(C)CCCC3(C)C)cc2oc1=O [Compound I-4, 3-acetyl-5-carboxy-7-retinoyloxy coumarin]
[1]; [3]
  EC50: 70 nM

## CC1=C(/C=C/C(C)=C/C=C/C(C)=C/C(=O)Oc2cc(=O)oc3c(C)cccc23)C(C)(C)CCC1 [Compound I-29]
[1]; [5]
  EC50: > 10000 nM
HL-60 cells; [6]
  IC50: 1900 nM

## CC1=C(/C=C/C(C)=C/C=C/C(C)=C/C(=O)Oc2cc(OC(=O)/C=C(C)/C=C/C=C(C)/C=C/C3=C(C)CCCC3(C)C)c3c(C)cc(=O)oc3c2)C(C)(C)CCC1 [Compound I-33, 4-methyl-5,7-diretinoyloxy-coumarin]
[1]; [5]
  EC50: > 10000 nM
HL-60 cells; [6]
  IC50: 3200 nM
